{"source": "paper PMC10021052", "about": "“Novel multivalent S100A8 inhibitory peptides attenuate tumor progression and metastasis by inhibiting the TLR4-dependent pathway” (Cancer Gene Therapy, 2023)", "key": {"SW480 cells": {"system": "SW480 cells", "test": "ELISA, IL-8 and VEGF secretion of SW480 cells", "type": "cell-based, human", "conditions": "peptide pretreatment, S100A8 24 h, supernatant ELISA; *P < 0.05 vs S100A8", "method": "(§1) S100A8 recombinant protein was purified as previously described. These proteins were immobilized on Maxisorp plates (Thermo Fisher Scientific, Waltham, MA, USA), followed by blocking with protein-free blocking buffer (Thermo Fisher Scientific). TLR4/MD-2 recombinant proteins with various concentrations of candidate peptides were then added to the indicated S100A8-immobilized ELISA plates for 2 h. The plates were washed, incubated with anti-TLR4 antibody, and HRP-conjugated secondary antibody, followed by the addition of substrate. The reaction was stopped by addition a 2N H2SO4 solution. Absorbance OD450/OD650 was measured using a microplate reader (Thermo Fisher Scientific). Maxisorp plates were also used for peptide coating. After blocking with protein-free blocking buffer, the coated plates were washed, and TLR4/MD-2 recombinant protein (2 µg/ml) was added to each well. The plates were incubated with a TLR4 antibody followed by horseradish peroxidase (HRP)-labeled anti-rabbit IgG. For detection of IL8 and VEGF in culture supernatants, SW480 cells were pretreated with the indicated peptides, and followed by stimulation with S100A8 for 24 h. The amount of interleukin-8 (IL-8) or VEGF in the supernatants were analyzed by ELISA kits (R&D Systems, Mineapolis, MN) according to the manufacturer’s instructions."}, "PKH26-labeled LLC cells": {"system": "PKH26-labeled LLC cells", "test": "Lung dissemination of PKH26-labeled LLC cells in TCM-sensitized mice", "type": "in vivo, C57BL/6J mice", "conditions": "10 mg/kg i.p. 1 h before last TCM injection; lungs 16 h after cells; 5–6 mice per group; *P < 0.05 vs control"}, "LLC tumor": {"system": "LLC tumor", "test": "Tumor growth in LLC tumor-bearing mice", "conditions": "*P < 0.05 vs control; for LLC tumor growth, monotherapy: 10 mg/kg i.p. every 3 days, five mice per group", "quoted_text": "Balb nu/nu or C57BL/6J mice were purchased from Clea Japan Inc. (Tokyo, Japan). Mice were used for experiments at 2–3 months of age. For SW480 transplanted xenograft model, SW480 cells were subcutaneously implanted into male Balb nu/nu mice. […] For generation of the Lewis lung cancer implantation mouse model, LLC cells were subcutaneously implanted into male C57BL/6J mice. […] Anti-PD-1 antibodies (Biolegend, San Diego, CA, USA) were used for combination therapy. To determine the tumor volume, the longitudinal diameter (length) and transverse diameter (width) were determined. Tumor volume based on measurements by Vernier calipers was calculated as tumor volume = ½ (length × width^2). For in vivo S100A8 stimulation, C57BL/6J mice were intravenously injected with mammalian-derived S100A8. Four hours after the i.v. injection, mice were sacrificed, and minced mouse lungs were digested with collagenase/dispase/DNase solution. Collected cells were incubated with anti-CD11b-PE (BD Bioscience), anti-Ly6G-FITC (BD Bioscience), and anti-Ly6C-APC (BD Bioscience) antibodies, and analyzed by a flow cytometry (Cytomics FC500; Beckman Coulter, Brea, CA, USA). […] After 24 h, PKH26 (Sigma-Aldrich)-fluorescent-labeled LLC cells were intravenously injected into TCM-stimulated C57BL6J mice. The mice were sacrificed after 16 h, and minced mouse lungs were digested with collagenase/dispase/DNase solution. The recruitment of MDSCs or PKH-26 labeled tumor cells in the lungs was determined by flow cytometry (CytoFlex; Beckman Coulter).\nBriefly, LLC cells were implanted s.c. into C57BL/6 J mice. […] Tumor volumes for individual mice were determined at the indicated time points. Each group included five mice. […] Tumor size was determined at the indicated time points. […] Each group included 5–6 mice. The mice were administered tumor conditioned medium once daily for five consecutive days. […] The PKH-26 labeled LLC tumor cells were injected intravenously, the mice were sacrificed, and the cell number was analyzed after 16 h. Each group included 5–6 mice."}, "Balb nu/nu mice": {"system": "Balb nu/nu mice", "test": "Toxicity: biochemical, body weight and hematological tests", "type": "in vivo, mouse", "conditions": "Supplementary Table 1", "excerpt": "We then examined the effect of divalent peptide3A5 on tumor growth in vivo."}, "[1]": {"system": "tumor vasculature of SW480 xenograft", "test": "Tumor vasculature and pericyte coverage (CD31, α-SMA) in SW480 tumors", "type": "in vivo, Balb nu/nu mice", "method": "(§2) To immunostain tumor vasculatures, the cryo sections (6 µm) obtained from frozen primary tumors, were incubated with anti-CD31 (BD Pharmingen, Cat No. 550274), and/or anti-α-SMA-Cy3 (Sigma-Aldrich, Cat No. C6198) followed by AlexaFlour 488-conjugated rat IgG secondary antibodies (Thermo Fisher Scientific) were used to visualize the signals by a confocal microscopy (LSM-710; Carl Zeiss). DAPI staining was used for nuclear staining. For immunohistochemistry, the paraffin-embedded sections were cut 4 µm thick and then deparaffinized, rehydrated and then treated for antigen retrieval. The sections were incubated with the indicated antibody overnight, followed by incubation with ImmPRESS HRP Reagent (Vector, Newark, CA). ImmPACT DAB (Vector) was used for visualization of the signals. The images were captured by BZ-X800 (Keyence, Osaka, Japan)."}, "[2]": {"system": "subcutaneous SW480 tumors", "test": "Immunohistochemistry of subcutaneous SW480 tumors: proliferation and caspase-3", "type": "in vivo, Balb nu/nu mice", "conditions": "Supplementary Fig. 2", "method": "as §2"}, "C57BL6 mice": {"system": "C57BL6 mice", "test": "Toxicity in C57BL6 mice", "type": "in vivo, mouse", "conditions": "Supplementary Table 1", "excerpt": "Because S100A8 inhibitory peptides target S100A8-TLR4/MD-2, which plays a role in innate immunity, the complete functional activities of S100A8 inhibitory peptides are expected to be observed in immunocompetent models. To date, syngeneic models are one of the only options to test physiological interactions between tumors and immune cells. […] LLC cells were identified as non-responders to anti-PD-1/programmed death-ligand 1 (PD-L1) therapy. […] We then examined the effect of divalent peptide3A5 in mouse MC38 colorectal cancer cells used as anti-PD-1 responder cells. We previously confirmed that MC38 endogenously expressed TLR4/MD-2 [8]."}, "S100A8-TLR4/MD-2 complex": {"system": "S100A8-TLR4/MD-2 complex", "test": "Competitive inhibition of S100A8-TLR4/MD-2 binding (ELISA, S100A8 immobilized; also immunoprecipitation)", "set-up": "species or system human", "conditions": "ELISA, peptide3A5 vs peptide #3 (Fig. 3B); divalent vs monomer (Fig. 4A)", "method": "as §1\nFig. 2 Identification of S100A8 binding sites to human TLR4/MD-2. […] TLR4/MD-2 recombinant proteins were immobilized to the ELISA plate. After blocking, a full length or deletion mutant of S100A8 was added to the plate. The more detailed methods are described in Materials and Methods. […] B A series of overlapping S100A8 synthetic peptides. The TLR4/MD-2 recombinant proteins were added to each well of peptide immobilized plates. The affinity to TLR4/MD-2 was determined. Data are shown as mean ± SD. C The competitive activity was determined using ELISA. Data are shown as mean ± SD. D The TLR4/MD-2 was mixed with S100A8 with/without the indicated peptides, and immunoprecipitated using an anti-TLR4 antibody. TLR4 or S100A8 was visualized. Similar results were obtained in three independent experiments. […] Total RNAs from SW480 cells with/without treatment of the peptide candidates were extracted and qPCR analysis was performed using relevant primer sets and SYBR green. Relative expression levels were compared. […] TEXT PRINTED IN THE PICTURE: (A) Full length: TLR4/MD-2 binding: + | (A) S100A8-ΔC: TLR4/MD-2 binding: − | (A) S100A8-N: TLR4/MD-2 binding: −\nFig. 4 Improvement of competitive inhibition activity by divalent peptide3A5. A The binding capacity was measured at the indicated concentration using an ELISA-based assay. Similar results were obtained in three independent experiments. B SW480 cells were pretreated with 2.5 µM of divalent peptide3A5, and then stimulated with human S100A8 recombinant protein. After 30 min, cell lysates were subjected to western blotting using the indicated antibody. The divalent peptide#3 or peptide3A5 reduced the expression of S100A8-mediated IL-8 (C) and VEGF (D) induction. Total RNAs from SW480 cells with/without treatment of the peptide candidates were extracted and qPCR analysis was performed using relevant primer sets and SYBR green. Relative expression levels were compared. Peptide #3 suppresses S100A8-mediated IL-8(E) and VEGF (F) secretion in SW480 cells."}, "[3]": {"system": "SW480-transplanted xenograft", "test": "Tumor growth in SW480-transplanted xenograft model", "type": "in vivo, Balb nu/nu mice", "conditions": "every 3 days; for tumor growth, divalent peptide3A5 monotherapy: SW480 xenograft, various doses, n = 5–6 mice per group; for tumor growth, combination with 5-FU: divalent peptide3A5 5 mg/kg i.p. + 5-FU 20 mg/kg i.p."}}, "note": "Entries after “also recorded” stand apart in the source; their conditions may differ."}
{"sequence": "FQEFAILVIK [Divalent peptide3A5, divalent peptide of peptide3A5 using Fmoc-Lys (Fmoc)-OH to form two branches]", "values": [{"measurement": "S100A8-mediated IL-8 secretion", "setting": "SW480 cells", "result": "suppressed"}, {"measurement": "S100A8-mediated VEGF secretion", "setting": "SW480 cells", "result": "suppressed"}, {"measurement": "pulmonary recruitment of PKH26-labeled LLC cells / lung metastasis", "setting": "PKH26-labeled LLC cells", "result": "suppresses the pulmonary recruitment of PKH26-labeled LLC cells"}, {"measurement": "LLC tumor growth, monotherapy", "setting": "LLC tumor", "result": "suppresses tumor progression"}, {"measurement": "LLC tumor growth, monotherapy", "setting": "LLC tumor; listed as divalent peptide3A5", "result": "inhibited in vivo tumor growth; also recorded: suppressed tumor growth in tumor-bearing mice"}, {"measurement": "LLC tumor, combination with anti-PD-1 antibody", "setting": "LLC tumor; with anti-PD-1 every 3 days, 5–6 mice per group", "result": "improved the efficacy of anti-programmed death (PD)1 antibody; also recorded: increased the efficacy of anti-PD-1 therapy"}, {"measurement": "serum ALT", "setting": "Balb nu/nu mice; 10 mg/kg", "result": "normal"}, {"measurement": "serum AST", "setting": "Balb nu/nu mice; 10 mg/kg", "result": "normal"}, {"measurement": "serum LDH", "setting": "Balb nu/nu mice; 10 mg/kg", "result": "normal"}, {"measurement": "body weight", "setting": "Balb nu/nu mice", "result": "no significant difference"}, {"measurement": "hematological test", "setting": "Balb nu/nu mice", "result": "no significant difference"}, {"measurement": "pericyte coverage (α-SMA/CD31)", "setting": "[1]; 5 mg/kg or 10 mg/kg", "result": "significantly increased the pericyte coverage"}, {"measurement": "tumor vasculature", "setting": "[1]; anti-CD31 staining", "result": "significantly diminished"}, {"measurement": "caspase-3 activation in SW480 tumors", "setting": "[2]", "result": "caused caspase-3 activation"}, {"measurement": "tumor cell proliferation in SW480 tumors", "setting": "[2]", "result": "suppressed tumor cell proliferation"}, {"measurement": "toxicity in C57BL6 mice", "setting": "C57BL6 mice", "result": "did not display any toxicity"}, {"measurement": "competitive inhibition, potency compared with parent", "setting": "S100A8-TLR4/MD-2 complex", "result": "observed at a lower dose range than the effect of the peptide3A5 monomer"}, {"measurement": "tumor growth, divalent peptide3A5 monotherapy", "setting": "[3]", "result": "inhibits tumor growth"}, {"measurement": "tumor growth, divalent peptide3A5 monotherapy", "setting": "[3]; listed as divalent peptide3A5", "result": "suppressed tumor progression in a dose-dependent manner; also recorded: dose-dependently inhibited tumor growth; also recorded: inhibited tumor growth in vivo"}, {"measurement": "tumor growth, combination with 5-FU", "setting": "[3]", "result": "synergistically inhibits tumor growth with 5-FU combination"}, {"measurement": "tumor growth, combination with 5-FU", "setting": "[3]; listed as divalent peptide3A5", "result": "synergistically suppressed tumor growth"}, {"measurement": "tumor growth, combination with bevacizumab", "setting": "[3]; divalent peptide3A5 5 mg/kg i.p. + bevacizumab 4 mg/kg i.p.", "result": "synergistically suppressed tumor growth; also recorded: synergistically inhibited tumor growth with bevacizumab"}]}
